Data: the NIST ThermoML archive (doi:10.1016/j.jct.2019.06.005)

Assay: xn = mol fraction of the nth substance listed
Conditions: for surface tension liquid-gas: Maximal bubble pressure; for mass density: 100 kPa, Liquid, Vibrating tube method

COCC[n+]1ccn(C)c1.O=S(=O)([N-]S(=O)(=O)C(F)(F)F)C(F)(F)F + CCO
Conditions | mass density [kg/m3] | surface tension liquid-gas [mN/m]
288.15 K, x1 = 0.1003 | 1055.22 | 24.8
288.15 K, x1 = 0.2 | 1197.64 | 25.9
288.15 K, x1 = 0.2972 | 1285.52 | 27.5
288.15 K, x1 = 0.401 | 1350.45 | 29.3
288.15 K, x1 = 0.5028 | 1396.83 | 31.5
288.15 K, x1 = 0.5982 | 1430.26 | 33.8
288.15 K, x1 = 0.6973 | 1457.78 | 35.8
288.15 K, x1 = 0.8111 | 1483.2 | 38.2
288.15 K, x1 = 0.8991 | 1499.41 | 39.7
288.15 K, x1 = 1 | 1515.3 | 41.4
293.15 K, x1 = 0.1003 | 1050.42 | 24.4
293.15 K, x1 = 0.2 | 1192.63 | 25.5
293.15 K, x1 = 0.2972 | 1280.42 | 27.1
293.15 K, x1 = 0.401 | 1345.31 | 29
293.15 K, x1 = 0.5028 | 1391.67 | 31.3
293.15 K, x1 = 0.5982 | 1425.1 | 33.5
293.15 K, x1 = 0.6973 | 1452.62 | 35.5
293.15 K, x1 = 0.8111 | 1478.06 | 38
293.15 K, x1 = 0.8991 | 1494.28 | 39.5
293.15 K, x1 = 1 | 1510.15 | 41.2
298.15 K, x1 = 0.1003 | 1045.8 | 23.9
298.15 K, x1 = 0.2 | 1187.81 | 25
298.15 K, x1 = 0.2972 | 1275.51 | 26.8
298.15 K, x1 = 0.401 | 1340.28 | 28.7
298.15 K, x1 = 0.5028 | 1386.61 | 31
298.15 K, x1 = 0.5982 | 1420.05 | 33.2
298.15 K, x1 = 0.6973 | 1447.54 | 35.3
298.15 K, x1 = 0.8111 | 1472.95 | 37.7
298.15 K, x1 = 0.8991 | 1489.16 | 39.2
298.15 K, x1 = 1 | 1505.03 | 41
303.15 K, x1 = 0.1003 | 1040.76 | 23.5
303.15 K, x1 = 0.2 | 1182.58 | 24.7
303.15 K, x1 = 0.2972 | 1270.2 | 26.5
303.15 K, x1 = 0.401 | 1335.02 | 28.4
303.15 K, x1 = 0.5028 | 1381.37 | 30.7
303.15 K, x1 = 0.5982 | 1414.81 | 33
303.15 K, x1 = 0.6973 | 1442.35 | 35
303.15 K, x1 = 0.8111 | 1467.8 | 37.5
303.15 K, x1 = 0.8991 | 1484.03 | 39
303.15 K, x1 = 1 | 1499.92 | 40.7
308.15 K, x1 = 0.1003 | 1035.9 | 23.1
308.15 K, x1 = 0.2 | 1177.54 | 24.4
308.15 K, x1 = 0.2972 | 1265.09 | 26.2
308.15 K, x1 = 0.401 | 1329.88 | 28.1
308.15 K, x1 = 0.5028 | 1376.24 | 30.4
308.15 K, x1 = 0.5982 | 1409.68 | 32.7
308.15 K, x1 = 0.6973 | 1437.23 | 34.8
308.15 K, x1 = 0.8111 | 1462.7 | 37.2
308.15 K, x1 = 0.8991 | 1478.94 | 38.8
308.15 K, x1 = 1 | 1494.83 | 40.5
313.15 K, x1 = 0.1003 | 1031.02 | 22.6
313.15 K, x1 = 0.2 | 1172.49 | 24
313.15 K, x1 = 0.2972 | 1259.99 | 25.8
313.15 K, x1 = 0.401 | 1324.76 | 27.8
313.15 K, x1 = 0.5028 | 1371.12 | 30.1
313.15 K, x1 = 0.5982 | 1404.57 | 32.5
313.15 K, x1 = 0.6973 | 1432.14 | 34.5
313.15 K, x1 = 0.8111 | 1457.62 | 37
313.15 K, x1 = 0.8991 | 1473.87 | 38.6
313.15 K, x1 = 1 | 1489.77 | 40.3
318.15 K, x1 = 0.1003 | 1026.12 | 22.3
318.15 K, x1 = 0.2 | 1167.43 | 23.7
318.15 K, x1 = 0.2972 | 1254.88 | 25.5
318.15 K, x1 = 0.401 | 1319.64 | 27.5
318.15 K, x1 = 0.5028 | 1366.01 | 29.9
318.15 K, x1 = 0.5982 | 1399.48 | 32.2
318.15 K, x1 = 0.6973 | 1427.07 | 34.3
318.15 K, x1 = 0.8111 | 1452.56 | 36.8
318.15 K, x1 = 0.8991 | 1468.81 | 38.3
318.15 K, x1 = 1 | 1484.72 | 40.1
